Source: patent US8106090B2, “1-amino linked compounds” (Eli Lilly and Company, priority 2005, dated 2012)
Counter-ions that a name gives are not always drawn.

biological target: T1, human recombinant DPIV enzyme (Homo sapiens, UniProt P27487); assay: Human recombinant DPIV activity assay (fluorometric end point, Gly-Pro-AMC substrate); type: biochemical; conditions: enriched human recombinant DPIV, Gly-Pro-AMC 0.02 mM, 12 points concentration response curve, duplicates
T1 construct: Secreted DPIV (lacking membrane anchor) was enriched from HEK293 cell culture supernatant; made in house; host or cells: HEK293
Protocol: Human Recombinant DPIV Activity Assay
The DPIV assay used was a fluorometric end point assay (excitation 355 nm; emission 460 nm) using enriched human recombinant DPIV enzyme (21.3 μU/μl), and Gly-Pro-AMC (Bachem I-1225) as substrate (0.02 mM). Secreted DPIV (lacking membrane anchor) was enriched from HEK293 cell culture supernatant by ultrafiltration, ultra-centrifugation, and size-exclusion chromatography. IC50 values of the compounds were calculated based on a 12 points concentration response curve. Each concentration was measured as duplicates. The assay was validated by plate variability and conformity, inter-plate variability, signal window, and minimum significant ration of IC50. A MSR was calculated based on a test/retest analysis and a retrospective analysis. The MSR value is 1.8.

T1 sequence (P27487 29-766 limits assumed): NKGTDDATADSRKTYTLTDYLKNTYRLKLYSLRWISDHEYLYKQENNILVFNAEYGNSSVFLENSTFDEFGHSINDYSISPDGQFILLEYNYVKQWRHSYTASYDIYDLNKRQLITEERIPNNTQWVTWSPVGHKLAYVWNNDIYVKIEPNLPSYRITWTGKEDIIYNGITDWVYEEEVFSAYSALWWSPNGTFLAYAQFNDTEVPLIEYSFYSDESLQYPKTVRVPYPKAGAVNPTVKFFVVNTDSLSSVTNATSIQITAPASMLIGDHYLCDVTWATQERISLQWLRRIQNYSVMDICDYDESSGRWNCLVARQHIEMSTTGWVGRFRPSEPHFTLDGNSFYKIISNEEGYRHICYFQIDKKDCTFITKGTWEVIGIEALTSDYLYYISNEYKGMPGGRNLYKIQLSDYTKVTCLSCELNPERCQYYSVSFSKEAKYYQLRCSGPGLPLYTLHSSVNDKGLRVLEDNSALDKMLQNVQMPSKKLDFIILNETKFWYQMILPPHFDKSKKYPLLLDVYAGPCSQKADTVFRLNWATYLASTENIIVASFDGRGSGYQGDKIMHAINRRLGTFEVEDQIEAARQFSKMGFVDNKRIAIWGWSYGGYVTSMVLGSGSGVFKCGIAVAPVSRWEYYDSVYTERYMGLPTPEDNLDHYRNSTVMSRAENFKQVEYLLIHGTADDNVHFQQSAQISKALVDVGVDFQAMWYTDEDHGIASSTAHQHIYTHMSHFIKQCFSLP

Row | IC50 | SMILES
1 | 2.73 µM | N[C@H](Cc1ccccc1)[C@@H](O)CN1CCCC(c2ccccc2)C1 (stereo partly drawn) [Example 6, (2S,3R)-3-Amino-4-phenyl-1-([3R,S]-3-phenyl-piperidin-1-yl)-butan-2-ol Dihydrochloride]
2 | 2.99 µM | N[C@H](Cc1ccccc1)[C@@H](O)Cn1cccn1 [Example 13, (2S,3R)-3-Amino-4-phenyl-1-pyrazol-1-yl-butan-2-ol Hydrochloride]
3 | 4.33 µM | N[C@H](Cc1ccccc1)[C@@H](O)Cn1cnc2ccccc21 [Example 15, (2S,3R)-3-Amino-1-benzimidazol-1-yl-4-phenyl-butan-2-ol Hydrochloride]
4 | 9.76 µM | CN(C[C@H](O)[C@H](N)Cc1ccccc1)S(C)(=O)=O [Example 21, N-[(2S,3R)-3-Amino-2-hydroxy-4-phenyl-butyl]-N-methyl-methanesulfonamide Hydrochloride]
